The text below walks through data of ChEMBL document CHEMBL1128058, “Synthesis of novel iodinated radioligands with high affinity and selectivity for CCK-B/gastrin receptors” (Bioorg Med Chem Lett, 1995).

The target in assay [1] is T1, Gastrin/cholecystokinin type B receptor (Mus musculus, UniProt P56481).
T1 sequence (P56481 whole entry): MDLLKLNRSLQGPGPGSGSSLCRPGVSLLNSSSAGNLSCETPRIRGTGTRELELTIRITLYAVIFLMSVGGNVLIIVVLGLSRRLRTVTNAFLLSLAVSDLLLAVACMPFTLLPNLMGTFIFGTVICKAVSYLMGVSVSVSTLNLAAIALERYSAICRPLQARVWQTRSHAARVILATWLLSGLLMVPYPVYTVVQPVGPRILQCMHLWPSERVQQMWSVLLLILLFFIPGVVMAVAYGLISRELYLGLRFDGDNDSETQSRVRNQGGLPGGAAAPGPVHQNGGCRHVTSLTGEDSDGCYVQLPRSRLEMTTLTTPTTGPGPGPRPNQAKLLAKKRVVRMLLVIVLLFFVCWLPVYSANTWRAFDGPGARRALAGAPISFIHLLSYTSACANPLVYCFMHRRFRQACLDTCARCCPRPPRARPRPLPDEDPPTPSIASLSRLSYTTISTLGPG
The experiment in a line: Binding affinity towards CCK-B receptor in mouse cerebral cortex membrane using [125I]bolton assay. The format is cell membranes.

For assay [2], the target named is T2, Cholecystokinin receptor type A (Rattus norvegicus, UniProt P30551).
T2 sequence (P30551 whole entry): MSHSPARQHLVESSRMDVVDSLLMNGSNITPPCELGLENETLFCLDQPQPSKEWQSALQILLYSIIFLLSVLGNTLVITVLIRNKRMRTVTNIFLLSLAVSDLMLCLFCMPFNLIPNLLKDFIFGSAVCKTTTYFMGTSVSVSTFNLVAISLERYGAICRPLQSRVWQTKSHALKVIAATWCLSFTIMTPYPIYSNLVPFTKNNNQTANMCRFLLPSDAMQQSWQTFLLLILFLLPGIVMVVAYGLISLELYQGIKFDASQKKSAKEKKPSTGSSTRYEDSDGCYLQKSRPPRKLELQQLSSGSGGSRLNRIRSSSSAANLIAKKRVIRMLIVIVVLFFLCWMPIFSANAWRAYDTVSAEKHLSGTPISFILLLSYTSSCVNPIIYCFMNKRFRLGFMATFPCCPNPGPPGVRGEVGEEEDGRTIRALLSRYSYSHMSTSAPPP
The experiment in a line: Binding affinity towards CCK-A receptor in rat pancreas membrane using Hunter labelled CCK-8S assay. Format: cell membranes.

For `C[C@](Cc1c[nH]c2ccccc12)(NC(=O)OC1C2CC3CC(C2)CC1C3)C(=O)N[C@@H](CC(=O)O)Cc1ccc(N=[N+]=[N-])c(I)c1` (some centres undefined), the Ki in assay [1] is 0.88 nM; in assay [2], 392 nM.
In the case of `C[C@](Cc1c[nH]c2ccccc12)(NC(=O)OC1C2CC3CC(C2)CC1C3)C(=O)N[C@@H](CC(=O)O)Cc1ccc(N)c(I)c1` (some centres undefined), the Ki in assay [1] was found to be 0.52 nM; in assay [2] it was 158 nM.
